According to patent EP0061654A1, “Vincamine cyclamate, process for its preparation and medicaments containing it” (Heinrich Mack Nachf., priority 1981, dated 1982):
Like-named read-outs stand apart in the source and are kept apart here.

Tests used:
[1] = in Wasser und anderen pharmazeutisch annehmbaren Lösungsmitteln; cited from earlier work
[2] = Solubility in pharmaceutically acceptable solvents; format: physicochemical; settings: in Wasser, Glycerin/Ethanol-Gemischen oder Ethanol/Wasser-Gemischen

Row | Compound | Löslichkeit [1] | Löslichkeit [2]
1 | CCC12CCCN3CCc4c(n(c5ccccc45)C(O)(C(=O)OC)C1)C32 (centres unmarked) [Vincamin-Base, Vincamin] | praktisch unlöslich | 
2 | Vincamin-cyclamat |  | ausreichend löslich
